Laboratory results reported in US8003331B2, “Method for identifying target protein of drug and method for screening therapeutic agent for diabetes using the target protein” (Astellas Pharma Inc., priority 2005, dated 2011).

Key:
TARDBP = molecular target: T1, TARDBP (Homo sapiens, UniProt Q13148); assay: pull-down with 8 GST fusion chaperone proteins from THP-1 cell extract, negative staining and mass spectrum identification; assay type: binding; conditions: 100 μM thalidomide added or not added
T1 construct: endogenous in cells; host or cells: THP-1
Experimental: Thalidomide has significant drug effects for sleep inducing agents, multiple myeloma, HIV, Hansen's disease and the like, but direct target protein of thalidomide has so far been unclear. Accordingly, an attempt was made to screen a target protein of thalidomide using the method shown in the aforementioned “Example 2(2). A human monocytic cell line THP-1 (ATCC) was cultured and suspended in 60 ml of a minimum essential medium (RPMI 1640, Invitrogen) containing 10% fetal calf serum (FCS) and cultured on a plate of 10 cm in diameter (Asahi Techno Glass) until reached 10^6 cells/ml. The cells were collected by 3 minutes of centrifugation at 1200 rpm, washed once with 10 ml of ice-cooled PBS and then lysed by adding 2.0 ml of the aforementioned buffer A, and the cell extract was collected. […] Under a condition of adding or not adding 100 μM in final concentration of thalidomide ((−)-thalidomide, Sigma), a pull-down test was carried out by mixing this soluble fraction of cell extract with 8 species of GST fusion chaperone proteins purified on the glutathione Sepharose beads (a mixture of GST-HSPA1A, GST-HSPH1, GST-HSPCA, GST-HSPD1, GST-DNAJA1, GST-HSPB1, GST-HSPE1 and GST-HSPA4; respective proteins were mixed in 0.5 μg portions). In this connection, steps and conditions of the pull-down test were the same as the aforementioned Example 2(2). […]

TNF-α = TNF-α gene expression in HeLa S3 cell (real time PCR, corrected by β-actin); assay type: cell-based, human
Experimental: The pcDNA-TARDBP or an empty vector (pcDNA3.1) (Invitrogen) was transferred into HeLa S3 cell. Illustratively, the HeLa S3 cell (ATCC) was firstly cultured in a 12 well culture plate until it reached a state of 70% confluent, by adding 1 ml of a minimum essential medium DMEM (Gibco) containing 10% fetal bovine serum (Sigma) to each well of the culture plate. The medium was substituted by 0.5 ml per well of a serum-free medium OPTI MEM I (Invitrogen), and 0.8 μg/well of the pcDNA-TARDBP or pcDNA3.1 was transiently transferred using Lipofect amine 2000 (Invitrogen). After 12 hours of the culturing, this was substituted by 1 ml/well of DMEM containing 10% of fetal bovine serum and further cultured for 12 hours. This was further cultured for 16 hours under a condition of adding or not adding okadaic acid (Wako Pure Chemical Industries) to a final concentration of 50 nM. In this case, […] was added a part of the cells simultaneously with the okadaic acid treatment. The medium was discarded, the cells were washed twice with ice-cooled PBS, and then these cells were frozen and stored at −80° C.
Total RNA was prepared from each cell frozen in the aforementioned Example 9(2), using a reagent for RNA extraction use (Isogen; Nippon Gene) and in accordance with the instructions attached thereto. The thus prepared each total RNA was then treated with a deoxyribonuclease (Nippon Gene), subjected to phenol/chloroform treatment and ethanol precipitation and dissolved in sterile water. Using 1 μg of this total RNA, its reverse transcription into a single-stranded cDNA was carried out in a system of 20 μl using a kit for reverse transcription reaction use (Advantage™ RT-for-PCR Kit; Clontech).
Six oligonucleotides (SEQ ID NO:97 to SEQ ID NO:102) were designed and synthesized as primers of PCR for the measurement of gene expression quantity. A combination of SEQ ID NO:97 and SEQ ID NO:98 was used for human β-actin gene, and a combination of SEQ ID NO:99 and SEQ ID NO:100 for human TNF-α gene, and a combination of SEQ ID NO:101 and SEQ ID NO:102 for human TARDBP gene, respectively. […]
The expression quantities of human TNF-α gene and human TARDBP gene in each sample were corrected by the expression quantity of β-actin gene based on the following equation. [Corrected expression quantity of TNF-α or TARDBP]=[expression quantity of TNF-α or TARDBP gene (raw data)/[expression quantity of β-actin gene (raw data)]
In comparing the expression quantities of TNF-α and TARDBP genes, relative amounts were calculated by regarding the expression quantity in a cell, into which an empty vector (pcDNA3.1) was transferred and which was treated only with the solvent (DMSO), as 100, with the results sown in FIG. 9 and FIG. 10. […]

T1 sequence (Q13148 whole entry, the tested form may be a part): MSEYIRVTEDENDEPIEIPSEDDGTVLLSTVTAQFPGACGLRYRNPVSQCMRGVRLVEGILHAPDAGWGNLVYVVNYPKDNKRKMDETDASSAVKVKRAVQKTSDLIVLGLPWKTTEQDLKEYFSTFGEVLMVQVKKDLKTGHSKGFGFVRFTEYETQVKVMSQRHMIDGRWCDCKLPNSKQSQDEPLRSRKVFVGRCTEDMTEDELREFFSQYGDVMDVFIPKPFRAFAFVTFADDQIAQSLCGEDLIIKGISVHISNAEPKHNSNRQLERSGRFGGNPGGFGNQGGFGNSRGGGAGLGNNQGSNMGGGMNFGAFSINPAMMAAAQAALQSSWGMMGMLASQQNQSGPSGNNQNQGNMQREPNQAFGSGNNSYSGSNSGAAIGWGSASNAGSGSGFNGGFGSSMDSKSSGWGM

Question: Which results are given for O=C1CCC(N2C(=O)c3ccccc3C2=O)C(=O)N1 (single isomer, unassigned; (-)) [thalidomide, (−)-thalidomide]?
Answer: band of about 45 kDa (TARDBP) binding to GST fusion chaperone protein mixture (TARDBP): present only when thalidomide was added; action to suppress expression of TNF-α (TNF-α; TARDBP high expression cell (pcDNA-TARDBP HeLa S3), with 50 nM okadaic acid): not observed; suppression of expression acceleration of TNF-α by okadaic acid (TNF-α; control cell (empty vector HeLa S3), thalidomide '100' added with 50 nM okadaic acid, 16 hours): ~50%
